How the values were obtained:
Type in all cases: functional
Rattus norvegicus [1] = assay: In vivo activity by inhibition of PAF-induced cutaneous vascular permeability in rats after peroral administration; conditions: po
Rattus norvegicus [2] = assay: In vivo activity by inhibition of PAF-induced cutaneous vascular permeability in rats after intravenous administration
Rattus norvegicus [3] = assay: In vivo activity by inhibition of PAF-induced cutaneous vascular permeability in rats after peroral administration of 10 mg/kg dose; conditions: route oral
Rattus norvegicus [4] = assay: In vivo activity by inhibition of PAF-induced cutaneous vascular permeability in rats after intravenous administration of 1 mg/kg dose
Rattus norvegicus [5] = assay: In vivo activity by inhibition of PAF-induced cutaneous vascular permeability in rats after peroral administration of 30 mg/kg dose; conditions: route oral
Rattus norvegicus [6] = assay: xIn vivo activity by inhibition of PAF-induced cutaneous vascular permeability in rats after peroral administration; conditions: po

Structure (SMILES) | ED50 (Rattus norvegicus [1]) [mg/kg] | ED50 (Rattus norvegicus [2]) [mg/kg] | other results
O=C(c1ccn2c1CSC2c1cccnc1)c1c[nH]c2cc(-c3ccc(F)cc3)ccc12 (stereo not given) | 6.4 | – | –
CN(C)C(=O)n1cc(C(=O)c2ccn3c2CSC3c2cccnc2)c2ccc(Cc3ccccc3)cc21 (stereo not given) | – | 0.09 | –
CN(C)C(=O)n1cc(C(=O)c2ccn3c2CSC3c2cccnc2)c2ccc(Sc3ccc(F)cc3)cc21 (stereo not given) | – | 0.27 | –
CN(C)C(=O)n1cc(C(=O)c2ccn3c2CSC3c2cccnc2)c2ccc(Oc3ccc(F)cc3)cc21 (stereo not given) | – | 0.03 | –
CN(C)C(=O)n1cc(C(=O)c2ccn3c2CSC3c2cccnc2)c2ccc(OCc3ccccc3)cc21 (stereo not given) | 3.3 | – | –
Cn1cc(C(=O)c2ccn3c2CSC3c2cccnc2)c2ccc(-c3ccc(F)cc3)cc21 (stereo not given) | – | 0.09 | –
CN(C)C(=O)n1cc(C(=O)c2ccn3c2CSC3c2cccnc2)c2ccc(-c3cccnc3)cc21 (stereo not given) | – | – | inhibition in vivo at 10 mg/kg (Rattus norvegicus [3]): 58%
NC(=O)n1cc(C(=O)c2ccn3c2CSC3c2cccnc2)c2ccc(-c3ccc(F)cc3)cc21 (stereo not given) | 0.06 | 0.01 | –
NCCn1cc(C(=O)c2ccn3c2CSC3c2cccnc2)c2ccc(-c3ccc(F)cc3)cc21 (stereo not given) | 1.3 | – | –
CN(C)C(=O)n1cc(C(=O)c2ccn3c2CSC3c2cccnc2)c2ccc(Cl)cc21 (stereo not given) | 1.4 | – | inhibition in vivo at 1 mg/kg (Rattus norvegicus [4]): 42%
CCNC(=O)n1cc(C(=O)c2ccn3c2CSC3c2cccnc2)c2ccc(-c3ccc(F)cc3)cc21 (stereo not given) | – | 0.18 | –
CNC(=O)n1cc(C(=O)c2ccn3c2CSC3c2cccnc2)c2ccc(-c3ccc(F)cc3)cc21 (stereo not given) | 0.12 | – | –
CN(C)C(=O)n1cc(C(=O)c2ccn3c2CSC3c2cccnc2)c2ccc(Br)cc21 (stereo not given) | 1.5 | – | inhibition in vivo at 1 mg/kg (Rattus norvegicus [4]): 41%
NNC(=O)n1cc(C(=O)c2ccn3c2CSC3c2cccnc2)c2ccc(-c3ccc(F)cc3)cc21 (stereo not given) | 0.57 | 0.04 | –
O=C(O)CCn1cc(C(=O)c2ccn3c2CSC3c2cccnc2)c2ccc(-c3ccc(F)cc3)cc21 (stereo not given) | 5.1 | 0.1 | –
O=C(c1ccn2c1CSC2c1cccnc1)c1cn(CCO)c2cc(-c3ccc(F)cc3)ccc12 (stereo not given) | 0.76 | 0.1 | –
CN(C)C(=O)n1cc(C(=O)c2ccn3c2CSC3c2cccnc2)c2ccccc21 (stereo not given) | – | – | inhibition in vivo at 30 mg/kg (Rattus norvegicus [5]): 34%
CN(C)C(=O)n1cc(C(=O)c2ccn3c2CSC3c2cccnc2)c2ccc(-c3ccc(F)cc3)cc21 (stereo not given) | 0.06 | 0.006 | –
CN(C)C(=O)Cn1cc(C(=O)c2ccn3c2CSC3c2cccnc2)c2ccc(-c3ccc(F)cc3)cc21 (stereo not given) | 0.12 | 0.009 | –
CN(C)S(=O)(=O)n1cc(C(=O)c2ccn3c2CSC3c2cccnc2)c2ccc(-c3ccc(F)cc3)cc21 (stereo not given) | – | – | ED50 (Rattus norvegicus [6]): 5.5 mg/kg
CN(C)C(=O)n1cc(C(=O)c2ccn3c2CSC3c2cccnc2)c2ccc(-c3ccccc3)cc21 (stereo not given) | 0.06 | 0.03 | –

— ChEMBL document CHEMBL1128093, “Discovery and optimization of indole pyrrolothiazole paf antagonists” (Bioorg Med Chem Lett, 1995)
